# Where “and” joins values, the source holds several entries; their conditions need not be identical. Equal entries are not always repeated.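 Where inhibition never reached the appropriate level, the endpoint shown equals the highest concentration tested. Otherwise, values were interpolated linearly from a five-concentration, 48-hour dose response in 96-well plates. The concentration for 50% growth inhibition is given as GI50.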 Calls of active or inactive are those of the source. No stated cut-off is given here; in the data, active = GI50 up to about 1.1 µM and inactive = higher.
# Key:
# Assay in all cases: growth of human tumour cells (NCI), 48 h
# 786-0 = system: 786-0
# A498 = system: A498
# A549 = system: A549
# ACHN = system: ACHN
# BT-549 = system: BT-549
# CAKI-1 = system: CAKI-1
# CCRF-CEM = system: CCRF-CEM
# DU-145 = system: DU-145
# EKVX = system: EKVX
# HCT-116 = system: HCT-116
# HCT-15 = system: HCT-15
# HL-60 = system: HL-60
# HOP-62 = system: HOP-62
# HOP-92 = system: HOP-92
# HT-29 = system: HT-29
# Hs-578T = system: Hs-578T
# IGROV-1 = system: IGROV-1
# K562 = system: K562
# KM12 = system: KM12
# LOX IMVI = system: LOX IMVI
# M14 = system: M14
# MCF7 = system: MCF7
# MDA-MB-231 = system: MDA-MB-231
# MDA-MB-435 = system: MDA-MB-435
# MDA-N = system: MDA-N
# MOLT-4 = system: MOLT-4
# Malme-3M = system: Malme-3M
# NCI-H226 = system: NCI-H226
# NCI-H23 = system: NCI-H23
# NCI-H460 = system: NCI-H460
# NCI/ADR-RES = system: NCI/ADR-RES
# OVCAR-3 = system: OVCAR-3
# OVCAR-4 = system: OVCAR-4
# OVCAR-5 = system: OVCAR-5
# OVCAR-8 = system: OVCAR-8
# PC-3 = system: PC-3
# RPMI-8226 = system: RPMI-8226
# SF-268 = system: SF-268
# SF-295 = system: SF-295
# SF-539 = system: SF-539
# SK-MEL-28 = system: SK-MEL-28
# SK-MEL-2 = system: SK-MEL-2
# SK-MEL-5 = system: SK-MEL-5
# SK-OV-3 = system: SK-OV-3
# SN12C = system: SN12C
# SNB-19 = system: SNB-19
# SNB-75 = system: SNB-75
# SR = system: SR
# SW-620 = system: SW-620
# T47D = system: T47D
# TK-10 = system: TK-10
# U-251 = system: U-251
# UACC-257 = system: UACC-257
# UACC-62 = system: UACC-62
# UO-31 = system: UO-31
# COLO 205 = system: COLO 205
# HCC 2998 = system: HCC 2998
# NCI-H522 = system: NCI-H522
# RXF 393 = system: RXF 393
smiles,measurement,setting,value
Cc1c2c(n3c(nc4ccccc43)c1C#N)SCC2,GI50,786-0,8.71 µM (inactive)
same,GI50,A498,3.36 µM (inactive)
same,GI50,A549,> 10 µM (inactive)
same,GI50,ACHN,> 10 µM (inactive)
same,GI50,BT-549,> 10 µM (inactive)
same,GI50,CAKI-1,> 10 µM (inactive)
same,GI50,CCRF-CEM,> 10 µM (inactive)
same,GI50,DU-145,> 10 µM (inactive)
same,GI50,EKVX,> 10 µM (inactive)
same,GI50,HCT-116,> 10 µM (inactive)
same,GI50,HCT-15,> 10 µM
same,GI50,HL-60,> 10 µM (inactive)
same,GI50,HOP-62,> 10 µM (inactive)
same,GI50,HOP-92,> 10 µM (inactive)
same,GI50,HT-29,> 10 µM (inactive)
same,GI50,Hs-578T,> 10 µM (inactive)
same,GI50,IGROV-1,> 10 µM (inactive)
same,GI50,K562,> 10 µM (inactive)
same,GI50,KM12,> 10 µM (inactive)
same,GI50,LOX IMVI,> 10 µM (inactive)
same,GI50,M14,> 10 µM (inactive)
same,GI50,MCF7,> 10 µM (inactive)
same,GI50,MDA-MB-231,> 10 µM (inactive)
same,GI50,MDA-MB-435,> 10 µM (inactive)
same,GI50,MDA-N,> 10 µM (inactive)
same,GI50,MOLT-4,> 10 µM (inactive)
same,GI50,Malme-3M,> 10 µM (inactive)
same,GI50,NCI-H226,> 10 µM (inactive)
same,GI50,NCI-H23,> 10 µM (inactive)
same,GI50,NCI-H460,> 10 µM (inactive)
same,GI50,NCI/ADR-RES,> 10 µM (inactive)
same,GI50,OVCAR-3,> 10 µM (inactive)
same,GI50,OVCAR-4,> 10 µM (inactive)
same,GI50,OVCAR-5,> 10 µM (inactive)
same,GI50,OVCAR-8,> 10 µM (inactive)
same,GI50,PC-3,> 10 µM (inactive)
same,GI50,RPMI-8226,> 10 µM (inactive)
same,GI50,SF-268,> 10 µM (inactive)
same,GI50,SF-295,> 10 µM (inactive)
same,GI50,SF-539,> 10 µM (inactive)
same,GI50,SK-MEL-28,> 10 µM (inactive)
same,GI50,SK-MEL-2,> 10 µM (inactive)
same,GI50,SK-MEL-5,> 10 µM (inactive)
same,GI50,SK-OV-3,> 10 µM (inactive)
same,GI50,SN12C,> 10 µM (inactive)
same,GI50,SNB-19,> 10 µM (inactive)
same,GI50,SNB-75,> 10 µM (inactive)
same,GI50,SR,> 10 µM (inactive)
same,GI50,SW-620,> 10 µM (inactive)
same,GI50,T47D,> 10 µM (inactive)
same,GI50,TK-10,> 10 µM (inactive)
same,GI50,U-251,> 10 µM (inactive)
same,GI50,UACC-257,> 10 µM (inactive)
same,GI50,UACC-62,> 10 µM (inactive)
same,GI50,UO-31,> 10 µM (inactive)
COc1cccc(/C=N/n2c(Cc3ccccc3)n[nH]c2=O)c1,GI50,786-0,50.1 µM (inactive)
same,GI50,A498,> 100 µM (inactive)
same,GI50,A549,> 100 µM (inactive)
same,GI50,ACHN,> 100 µM (inactive)
same,GI50,BT-549,> 100 µM (inactive)
same,GI50,CAKI-1,> 47.4 µM (inactive)
same,GI50,CCRF-CEM,> 100 µM (inactive)
same,GI50,COLO 205,> 100 µM (inactive)
same,GI50,DU-145,> 100 µM (inactive)
same,GI50,EKVX,> 72.6 µM (inactive)
same,GI50,HCC 2998,> 100 µM (inactive)
same,GI50,HCT-116,> 100 µM (inactive)
same,GI50,HCT-15,> 100 µM
same,GI50,HOP-62,42.9 µM (inactive)
same,GI50,HT-29,> 35.4 µM (inactive)
same,GI50,Hs-578T,26.7 µM (inactive)
same,GI50,K562,> 100 µM (inactive)
same,GI50,KM12,> 76.2 µM (inactive)
same,GI50,LOX IMVI,48.9 µM (inactive)
same,GI50,M14,> 100 µM (inactive)
same,GI50,MCF7,> 100 µM (inactive)
same,GI50,MDA-MB-231,> 100 µM (inactive)
same,GI50,MDA-MB-435,> 100 µM (inactive)
same,GI50,MDA-N,> 100 µM (inactive)
same,GI50,MOLT-4,> 100 µM (inactive)
same,GI50,Malme-3M,> 67.6 µM (inactive)
same,GI50,NCI-H23,> 100 µM (inactive)
same,GI50,NCI-H460,> 100 µM (inactive)
same,GI50,NCI-H522,16.8 µM (inactive)
same,GI50,NCI/ADR-RES,> 31.9 µM (inactive)
same,GI50,OVCAR-3,> 100 µM (inactive)
same,GI50,OVCAR-4,> 100 µM (inactive)
same,GI50,OVCAR-5,> 100 µM (inactive)
same,GI50,OVCAR-8,69 µM (inactive)
same,GI50,PC-3,> 100 µM (inactive)
same,GI50,RPMI-8226,> 100 µM (inactive)
same,GI50,RXF 393,11.2 µM (inactive)
same,GI50,SF-268,43 µM (inactive)
same,GI50,SF-295,38.5 µM (inactive)
same,GI50,SF-539,> 100 µM (inactive)
same,GI50,SK-MEL-28,> 100 µM (inactive)
same,GI50,SK-MEL-2,> 100 µM (inactive)
same,GI50,SK-MEL-5,33.9 µM (inactive)
same,GI50,SK-OV-3,> 100 µM (inactive)
same,GI50,SN12C,> 19.7 µM (inactive)
same,GI50,SNB-19,> 100 µM (inactive)
same,GI50,SNB-75,29.4 µM (inactive)
same,GI50,SW-620,> 100 µM (inactive)
same,GI50,T47D,> 73.6 µM (inactive)
same,GI50,TK-10,> 100 µM (inactive)
same,GI50,U-251,> 100 µM (inactive)
same,GI50,UACC-257,> 100 µM (inactive)
same,GI50,UACC-62,> 100 µM (inactive)
same,GI50,UO-31,> 100 µM (inactive)
COc1ccccc1/N=N/c1c(O)ccc2ccccc12,GI50,786-0,13.8 µM (inactive) and 19.3 µM (inactive)
same,GI50,A498,32.1 µM (inactive) and 23.5 µM (inactive)
same,GI50,A549,32.7 µM (inactive) and 23 µM (inactive)
same,GI50,ACHN,13.6 µM (inactive)
same,GI50,BT-549,84.3 µM (inactive)
same,GI50,CAKI-1,18.7 µM (inactive) and 25.6 µM (inactive)
same,GI50,COLO 205,56.8 µM (inactive) and 64.7 µM (inactive)
same,GI50,DU-145,54.2 µM (inactive) and 98.9 µM (inactive)
same,GI50,HCC 2998,21.3 µM (inactive)
same,GI50,HCT-116,33.4 µM (inactive) and 29 µM (inactive)
same,GI50,HCT-15,> 63.2 µM
same,GI50,HOP-62,15.8 µM (inactive) and 14.5 µM (inactive)
same,GI50,HOP-92,22.8 µM (inactive) and 14.6 µM (inactive)
same,GI50,HT-29,34.6 µM (inactive) and 30.7 µM (inactive)
same,GI50,Hs-578T,28.7 µM (inactive) and 26.6 µM (inactive)
same,GI50,K562,> 100 µM (inactive) and 82.8 µM (inactive)
same,GI50,KM12,51.6 µM (inactive) and > 45.5 µM (inactive)
same,GI50,MCF7,52.8 µM (inactive)
same,GI50,MDA-MB-231,30.2 µM (inactive) and 28.5 µM (inactive)
same,GI50,MDA-MB-435,74 µM (inactive) and 78.2 µM (inactive)
same,GI50,MDA-N,45.7 µM (inactive) and > 80.4 µM (inactive)
same,GI50,MOLT-4,64.3 µM (inactive)
same,GI50,NCI-H23,21.7 µM (inactive) and 31.4 µM (inactive)
same,GI50,NCI-H460,18.9 µM (inactive)
same,GI50,NCI/ADR-RES,42.1 µM (inactive) and 35 µM (inactive)
same,GI50,OVCAR-3,31.4 µM (inactive) and 32.1 µM (inactive)
same,GI50,OVCAR-5,40.1 µM (inactive) and 38.9 µM (inactive)
same,GI50,OVCAR-8,25.8 µM (inactive) and 30.3 µM (inactive)
same,GI50,PC-3,35.6 µM (inactive) and 38.1 µM (inactive)
same,GI50,SF-268,29.9 µM (inactive) and 33.4 µM (inactive)
same,GI50,SF-295,20 µM (inactive) and 28.5 µM (inactive)
same,GI50,SK-MEL-28,85.3 µM (inactive)
same,GI50,SK-MEL-2,> 63.4 µM (inactive) and 65 µM (inactive)
same,GI50,SK-MEL-5,22.8 µM (inactive) and 20.7 µM (inactive)
same,GI50,SK-OV-3,13.6 µM (inactive) and 18.3 µM (inactive)
same,GI50,SN12C,71.4 µM (inactive) and 60.8 µM (inactive)
same,GI50,SNB-19,27.6 µM (inactive) and 26.9 µM (inactive)
same,GI50,SNB-75,18.7 µM (inactive) and 19.6 µM (inactive)
same,GI50,SR,24.3 µM (inactive)
same,GI50,SW-620,56.8 µM (inactive) and 66.7 µM (inactive)
same,GI50,T47D,23.3 µM (inactive) and 38.2 µM (inactive)
same,GI50,TK-10,14.6 µM (inactive) and 23.4 µM (inactive)
same,GI50,U-251,14.2 µM (inactive) and 18.9 µM (inactive)
same,GI50,UO-31,17.9 µM (inactive) and > 10 µM (inactive)
